The results in this text go back to patent US20230285512A1, “COMPOSITIONS AND METHODS FOR TREATING MYOCARDIAL INFARCTION AND ISCHEMIA” (priority 2022, published 2023).

Entries after “also recorded” stand apart in the source; their conditions may differ.

For the data set, the system named is HL-1 cardiomyocytes. Put plainly: In vitro hypoxia assay of HL-1 cardiomyocytes, live/dead. The format is cell-based. The method, then:
To examine potential functional roles of these candidates, particularly on cellular apoptosis, the study next used an in vitro hypoxia assay of HL-1 CMs, in which cells were exposed to low oxygen (1%02) for 6 hours prior to treatment with recombinant forms of these proteins.
HL-1 cardiomyocytes (Sigma, cat. SCC065) were maintained in growth media consisting of 10% FBS in Claycomb Media (Sigma, cat. 51800C) supplemented with 10 mM norepinephrine (Sigma, cat. A0937) and […] L-glutamine (Gibco, cat. 25030081). Primary cardiac fibroblasts were isolated from Col1a1GFP/+ mice 2 months of age. Mice were injected with heparin prior to sacrifice and the heart collected. The tissue was then cut into 1-2 mm pieces and digested with Liberase Blendzyme TH and TM (Roche, cat. LIBTM-RO) in Hank's Balanced Salt Solution (HBSS) (Gibco, cat. 1417507) supplemented with DNAse I and polaxamer (10 mg/ml, Sigma, cat. 16758) in 37° C. for 1 h. […]
Fluorescent images were acquired with Leica fluorescence inverted microscope DMI6000B equipped with an EL6000 light source. […] Image quantification was performed using Imager s “threshold” and “analyze particles” functions. Assessment of live/dead was determined as the number of DAPI+ cells/HPF. EdU and pHH3 quantification were recorded as the number of EdU+ or pHH3+ nuclei over the total number of DAPI.

Turning to “thymosin β4: Thymosin family protein Tmsb4x, recombinant form; human reference NP_066932 in Table 1”, the “number of DAPI+ (dead) cells per field” value (1% O2 for 6 hours prior to treatment with recombinant protein) is “reduced; also recorded: protective role”. The “cellular viability / toxicity” value (high doses (500 nM)) is listed as “cellular toxicity”.
